Results published in ChEMBL document CHEMBL1201862, “PubChem BioAssay data set” (2004).
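Following 48 hours of exposure in 96-well plates, responses at five concentrations were used to interpolate endpoints linearly. GI50 is the concentration that inhibits growth by half.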 Activity calls are given as the source filed them. Rule as the data show it: active = GI50 up to about 1.1 µM and inactive = higher.

Assays:
Experiment in all cases: NCI tumour cell line growth inhibition, 48 h
786-0 = tested on: 786-0
A498 = tested on: A498
A549 = tested on: A549
ACHN = tested on: ACHN
CAKI-1 = tested on: CAKI-1
CCRF-CEM = tested on: CCRF-CEM
COLO 205 = tested on: COLO 205
DLD-1 = tested on: DLD-1
DMS-114 = tested on: DMS-114
DMS-273 = tested on: DMS-273
EKVX = tested on: EKVX
HCC 2998 = tested on: HCC 2998
HCT-116 = tested on: HCT-116
HCT-15 = tested on: HCT-15
HL-60 = tested on: HL-60
HOP-62 = tested on: HOP-62
HOP-92 = tested on: HOP-92
HT-29 = tested on: HT-29
IGROV-1 = tested on: IGROV-1
K562 = tested on: K562
KM-20L2 = tested on: KM-20L2
KM12 = tested on: KM12
LOX IMVI = tested on: LOX IMVI
LXFL 529 = tested on: LXFL 529
M14 = tested on: M14
M19-MEL = tested on: M19-MEL
MOLT-4 = tested on: MOLT-4
Malme-3M = tested on: Malme-3M
NCI-H226 = tested on: NCI-H226
NCI-H23 = tested on: NCI-H23
NCI-H522 = tested on: NCI-H522
OVCAR-4 = tested on: OVCAR-4
OVCAR-5 = tested on: OVCAR-5
OVCAR-8 = tested on: OVCAR-8
RPMI-8226 = tested on: RPMI-8226
RXF 393 = tested on: RXF 393
SF-268 = tested on: SF-268
SF-295 = tested on: SF-295
SF-539 = tested on: SF-539
SK-MEL-28 = tested on: SK-MEL-28
SK-MEL-2 = tested on: SK-MEL-2
SK-MEL-5 = tested on: SK-MEL-5
SK-OV-3 = tested on: SK-OV-3
SN12C = tested on: SN12C
SNB-19 = tested on: SNB-19
SNB-75 = tested on: SNB-75
SNB-78 = tested on: SNB-78
SR = tested on: SR
SW-620 = tested on: SW-620
TK-10 = tested on: TK-10
U-251 = tested on: U-251
UACC-257 = tested on: UACC-257
UACC-62 = tested on: UACC-62
UO-31 = tested on: UO-31
XF498 = tested on: XF498
NCI-H460 = tested on: NCI-H460
OVCAR-3 = tested on: OVCAR-3

Measured: GI50

C=CCN(CC=C)CC(C(C)=O)C(c1ccccc1)c1c(O)c2ccccc2oc1=O (stereo not given)
inactive: 786-0 > 100 µM | A498 > 100 µM | A549 > 100 µM | ACHN > 100 µM | CAKI-1 > 100 µM | CCRF-CEM > 100 µM | COLO 205 > 100 µM | DLD-1 > 100 µM | DMS-114 > 100 µM | DMS-273 > 100 µM | EKVX > 100 µM | HCC 2998 > 100 µM | HCT-116 > 100 µM | HL-60 > 100 µM | HOP-62 > 100 µM | HOP-92 > 100 µM | HT-29 > 100 µM | IGROV-1 > 100 µM | K562 > 100 µM | KM-20L2 82.8 µM | KM12 19 µM | LOX IMVI > 100 µM | LXFL 529 > 100 µM | M14 > 100 µM | M19-MEL > 100 µM | MOLT-4 > 100 µM | Malme-3M > 100 µM | NCI-H226 45.7 µM | NCI-H23 > 100 µM | NCI-H522 82.4 µM | OVCAR-4 > 100 µM | OVCAR-5 > 100 µM | OVCAR-8 > 100 µM | RPMI-8226 > 100 µM | RXF 393 > 100 µM | SF-268 > 100 µM | SF-295 30.5 µM | SF-539 > 100 µM | SK-MEL-28 > 100 µM | SK-MEL-2 > 100 µM | SK-MEL-5 > 100 µM | SK-OV-3 > 100 µM | SN12C > 100 µM | SNB-19 15.6 µM | SNB-75 39.6 µM | SNB-78 > 100 µM | SR > 100 µM | SW-620 > 100 µM | TK-10 > 100 µM | U-251 > 100 µM | UACC-257 > 100 µM | UACC-62 > 100 µM | UO-31 18.2 µM | XF498 > 100 µM
> 100 µM: HCT-15

CN(C)CCNC(=O)c1ccc(Cl)c2c(Nc3ccc(S(=O)(=O)N=C(N)N)cc3)c3ccccc3nc12
inactive: 786-0 14.3 µM | A549 3.33 µM | ACHN 4.22 µM | CCRF-CEM 1.69 µM | COLO 205 3.78 µM | DLD-1 5.62 µM | DMS-273 1.79 µM | EKVX 11.4 µM | HCC 2998 8.17 µM | HCT-116 3.9 µM | HL-60 1.7 µM | HOP-62 10.1 µM | HT-29 2.05 µM | IGROV-1 3.55 µM | K562 2.77 µM | KM-20L2 5.53 µM | KM12 4.21 µM | LOX IMVI 1.75 µM | LXFL 529 3.94 µM | M14 7.38 µM | M19-MEL 3.86 µM | NCI-H226 2.08 µM | NCI-H23 4.68 µM | NCI-H460 1.63 µM | OVCAR-3 12.4 µM | OVCAR-4 1.87 µM | OVCAR-5 > 10 µM | OVCAR-8 2.24 µM | RXF 393 4.66 µM | SF-268 3.48 µM | SF-295 3.16 µM | SF-539 3.81 µM | SK-MEL-28 11.2 µM | SK-MEL-2 9.75 µM | SK-MEL-5 8.04 µM | SN12C 3.15 µM | SNB-19 1.85 µM | SNB-75 > 10 µM | SNB-78 12.1 µM | SW-620 1.73 µM | TK-10 12.6 µM | U-251 3.29 µM | UACC-62 5.42 µM | XF498 4.51 µM
5.02 µM: HCT-15
active: DMS-114 0.993 µM | MOLT-4 0.358 µM | NCI-H522 0.603 µM | SR 0.54 µM | UO-31 0.349 µM
